Measured values reported in patent publication US12065468B2, “Heme-binding small peptide” (priority 2021, dated 2024).
Entries after “also recorded” stand apart in the source; their conditions may differ.

Key:
[1] = Biolayer interferometry of heme binding
Text: Biotinylation of heme: Hemin was biotinylated using the method exactly as described previouslyl^16. Biotin hydrazide, DCC was purchased from Sigma. COSMOSIL™ 5C18-AR-II Packed Column, 4.6 mm I.D.×150 mm from Nacalai USA (San Diego, CA) was used to separate the products. LC-MS was used to verify the correct molecular weight (969.4 Da) of biotinylated heme (in which only one of the two propionate groups of protoheme was conjugated with biotin hydrazide) as described above.
Biolayer interferometry: Biolayer interferometry was carried out using a ForteBio Octet RED96™ biolayer interferometer, following the manufacturer's instructions for a standard kinetic assay. Streptavidin-coated biosensor tips were incubated in 200 μl assay buffer (Water [pH 7.4]), each for 60s. Then biotinylated heme (or NCR247 in the case of Fe(III) PPIX dimethyl ester chloride) was loaded onto each biosensor tip at the defined concentration until the binding signal reached a value of >1.4. Biosensor tip loading was followed by incubation in assay buffer for 60s. Association between the ligand-heme and the analyte-various variants of NCR247 (Increasing concentrations in assay buffer) was observed over a time frame of ˜116 s, in assay buffer. To stop binding kinetics for dissociation, the biosensor tips were placed back into assay buffer not containing any analyte, for 120 s. Curves were fit with Global fit analysis and Data analysis and KD calculation was performed using Fortebio™ data analyses 8.2 software as described previously^89.

Haemophilus influenzae = assay: Cell viability assay for H. influenzae; assay type: cell-based; details: 24 hours, BHI with 7.5 μM hemin
Protocol: (§1) Cell viability assays for H. influenza and P. gingivalis: Haemophilus influenzae Rd [KW20] was obtained from ATCC (51907). Standard growth and culturing techniques were followed as described previously^92. Cultures were grown in Brain Heart Infusion broth (BHI) supplemented with 7.5 μM of hemin and 2 μg/ml NAD with or without the addition of peptide for 24 hours. The number of viable cells for every reaction mixture was then determined by serially diluting and spotting 10-μl aliquots in triplicates on BHI agar plates supplemented with 15 μM hemin and 3 μM NAD. Porphyromonas gingivalis 2561 was obtained from ATCC (33277). Pre-reduced, anaerobically sterilized Brucella Broth and BRU—Brucella Blood Agar—were purchased from Anaerobe systems (CA, USA). They were opened just before use. Static cultures and plates were incubated at 37° C. in an incubation chamber from BD GasPak™ EZ Container Systems. Anaerobic conditions were maintained by using BD BBL CO2 gas generators and BD BB GasPak™ CO2 indicators. Cultures were grown anaerobically in Brucella Broth with or without addition of peptides for 48 hours and viable cells for every reaction mixture were then determined by serially diluting and spotting 10-μ1 aliquots in triplicates on Brucella Blood Agar.

Sinorhizobium meliloti [2] = assay: S. meliloti cell death in 24 hours (plating); assay type: cell-based
Caenorhabditis elegans = assay: C. elegans growth; details: in vivo
Text: When grown in the lab, the widely-studied model nematode Caenorhabditis elegans normally acquires heme by ingesting bacteria and breaking them down to release heme. […] A new class of heme importer was identified in C. elegans by analyzing heme-responsive proteins and orthologs have been subsequently identified in other parasites such as the kinetoplastid parasite discussed above.

Sinorhizobium meliloti [3] = assay: S. meliloti growth curve; assay type: cell-based; details: increasing amounts of peptide; minimal medium
Protocol: Growth curve: All growth curve experiments were performed in a Tecan SPARK 10M microplate reader using polystyrene flat bottomed, non-treated, sterile 96 well plates. Overnight cultures grown in LBMC were washed and were subcultured (1:100 dilution) in minimal medium supplemented with respective iron concentrations. The plates were programed to continuously shake at 150 rpm and temperature maintained at 30° C. Optical density was measured at 600 nm every 60 minutes.

ribosomal machinery = assay: In-vitro translation assay, GFP production; assay type: biochemical; details: increasing concentrations; fluorescence and western blot; listed as L-NCR247
Text: FIG. 19. Interaction of NCR247 with ribosomal machinery leads to modification in translational capability. (A) In-vitro translation assay to measure GFP production with increasing concentrations of L or D-NCR247. […] (B) Western blot to measure the amount of GFP produced using Anti-GFP antibody.
Interaction of NCR247 with ribosomal machinery leads to modification in translational capability. To see if this is due to chiral interaction, we performed in-vitro translation assay and used GFP production and measured fluorescence as a read out. We also performed a western blot to measure the amount of GFP produced using Anti-GFP antibody.

S. meliloti [4] = assay: Cell cycle progression by flow cytometry on synchronized cultures; assay type: cell-based, Sinorhizobium meliloti; details: synchronized culture, 4 uM; listed as L-NCR247
Text: FIG. 14. […] Cell cycle progression analysis using flow cytometry on synchronized cultures of Wild type S. meliloti and bacA mutant of S. meliloti treated with L or D-NCR247 when compared to untreated cells. Dark grey represents percentage of cells with 1 copy of genome and light grey represents percentage of cells with 2 copies of genomes. […] Data are presented as average of three biological replicates.
Since NCR247 treatment leads to gene expression change in several genes of the CtrA regulon, we investigated the CtrA regulon and the cell division inhibition role of NCR247. […] In addition, this phenotype is retained in a peptide transporter bacA mutant indicating cell division inhibition happens due to protein-peptide interaction outside the cytoplasm.

Porphyromonas gingivalis = assay: Cell viability assay for P. gingivalis; assay type: cell-based; details: 48 hours, anaerobic, Brucella Broth
Protocol: as §1

S. meliloti [5] = assay: Radioactive 55Fe uptake assay; assay type: cell-based, Sinorhizobium meliloti; details: 2 μM, medium with sufficient iron
Protocol: Iron uptake assay: Radioactive ^55Fe uptake assays were performed as described previously^66 with some modifications. Cells were grown in LB to an O.D.600 nm of 0.2. 20 ml cultures were then spun down, and suspended in 20 ml minimal media with 5 μM FeSO4 for 1 hour. 2 μM NCR247 and then 100 μM sodium ascorbate was added, and cells were incubated for additional 30 mins. At time 0, 1 μM^55FeCl3 mixed with ascorbate was added. At given time points, 1 ml aliquots were taken and quenched in 3 ml of ice-cold quench buffer (0.1M Tris, 1 mM ascorbate, and 100 μM FeSO4, pH 6.0). The cells were collected immediately after quenching on 0.45-μm filters, presoaked in quench buffer using a Millipore sigma 1225 vacuum filtration unit. The radioactive ^55Fe content of the filters with cells was counted using a scintillation counter. Internalized ^55Fe levels were normalized to the protein levels in the cell.

RNGCIVDPRCPYQQCRRPLYCRRR [NCR247]
Kd ([1]; biotinylated heme as ligand, peptide as analyte): ~1 nM
heme binding affinity, in words ([1]; compared with NCR247 (L-enantiomer)): binds heme with nanomolar affinity
growth / viable cell number of H. influenzae (Haemophilus influenzae): can prevent the growth; also recorded: can block the growth
growth / viable cell number of H. influenzae (Haemophilus influenzae; listed as L-NCR247): Reduction of viable cell number
Cell death in 24 hours (Sinorhizobium meliloti [2]; 6 uM peptide): 10000 fold decrease in fold decrease in cell number
reduction in number of S. meliloti cells (bactericidal effect) (Sinorhizobium meliloti [2]; incubated 24 hours, plated in non-selective medium): causes a reduction in the number of S. meliloti cells
growth of C. elegans (Caenorhabditis elegans): can block the growth; also recorded: blocks growth of the nematode C. elegans, arresting them in the L1 stage
inhibition of growth of S. meliloti (bacteriostatic effect) (Sinorhizobium meliloti [3]): reduction in growth rate; also recorded: inhibits the growth of Sinorhizobium meliloti
production of GFP (ribosomal machinery): inhibition of production of GFP; also recorded: Fluorescence units decreased
cell division inhibition (S. meliloti [4]): leads to cell division inhibition; also recorded: more percentage of cells having 2 copies of genome
growth / viable cell number of P. gingivalis (Porphyromonas gingivalis): can prevent the growth
growth / viable cell number of P. gingivalis (Porphyromonas gingivalis; listed as L-NCR247): Reduction of viable cell number
water solubility (Water solubility): highly water soluble
uptake of 55Fe (S. meliloti [5]): markedly increased the import of ^55Fe
